The assay has as its system T1, Mle046.
T1 construct: signal peptide (first 27 residues) removed; His-tagged (pColdII), tag kept; codon-optimised gene, E. coli Shuffle T7; theoretical 62 kD
Kind of assay: HPLC ([…] nm), MHET degradation rate, non-linear Michaelis-Menten fit. Format: biochemical, metagenome: marine microbial consortium. Conditions: 40 mM sodium phosphate pH 7.5, 30°C; rate declines at 2,700 μM MHET (fit up to 2,230 μM).

With `O=C(O)c1ccc(C(=O)OCCO)cc1` [MHET], the Km (commonly the concentration of substrate that gives half-maximal velocity) was 2640 µM.
